Assays:
BMDMs = test: MTT assay for cell viability; assay type: cell-based, mouse; settings: different concentrations and times (Fig. 3b)
Protocol: The mouse macrophage cell line RAW264.7 (ATCC TIB-71; American Type Culture Collection) and HEK293T (ATCC-11268) cells were maintained in DMEM (Invitrogen) containing 10% FBS (Invitrogen), sodium pyruvate, nonessential amino acids, penicillin G (100 IU/ml), and streptomycin (100 μg/ml). Transient transfections were performed with Lipofectamine 3000 (Invitrogen), or calcium phosphate (Clontech), according to the manufacturer’s instructions. Raw264.7 stable cell lines were generated using a standard selection protocol with 2 μg/ml of puromycin. Mouse primary bone marrow derived-macrophages (BMDMs) were isolated from C57BL/6 mice and cultured in DMEM for 3–5 days in the presence of 25 ng/ml recombinant macrophage colony stimulating factor (R&D Systems, 416-ML, Minneapolis, MN, USA), as described previously. Human adherent monocytes were prepared from PBMCs donated by healthy subjects, as described previously.
Figure 3 TIPTP robustly suppresses LPS/ATP-mediated Rubicon-p22phox interaction and ROS-mediated inflammation. (a) Structure of the TIPTP. (b) MTT assay for cell viability. BMDMs were incubated with TIPTP for the indicated times at the indicated TIPTP concentrations (upper). WCLs were used for IB with α22phox, αRubicon, or αActin (lower). […] Quantitative analysis of mean fluorescence intensities of ROS (lower). […] (f) Culture supernatants were harvested and analyzed for cytokines by ELISA. […]

[1] = test system: collagen-induced arthritis; test: Collagen-induced arthritis (CIA) mouse model; assay type: in vivo
Protocol: The collagen-induced arthritis mouse model was established as previously described. Briefly, male DBA/1 J mice (6 − 8-weeks-old) were obtained from Beijing Vital River Laboratory Animal Technology Co., Ltd. (Charles River Laboratories department in Beijing, China), and kept under specific pathogen-free conditions. Chick collagen type II (Chondrex, Redmond, Washington, USA) was dissolved in 0.05 M acetic acid to a concentration of 2 mg/mL and emulsified with a complete Freund’s adjuvant (2 mg/mL M. tuberculosis H37Ra, Chondrex). At the beginning of the experiments (day 0), the mice were immunized with a 0.1 mL emulsion containing 100 μg of collagen at the tail base with a glass syringe and 25-G needles and then administered a booster (on day 21) with the same preparation of collagen and incomplete Freund’s adjuvant (Chondrex).
Cell culture supernatants, mice sera and synovial fluid were analyzed for cytokine content using the BD OptEIA ELISA set (BD Pharmingen) for the detection of TNF-α, IL-6, IL-1β, and IL-18. All assays were performed as recommended by the manufacturer.
Intracellular ROS levels were measured by flow cytometry from cells cultured in serum-free medium and loaded with the redox-sensitive dye 2 µM dihydroethidium (DHE for O2^−; Calbiochem) or 10 µM 2′,7′-Dichlorofluorescin diacetate (DCFH-DA for H2O2; Calbiochem)[18],[19]. The cells were thoroughly and quickly washed with pulse spin and immediately acquired for analyses in FACSCalibur (BD Biosciences, San Jose, CA). The data were plotted using CellQuest software (BD Biosciences).
Figure 4 TIPTP protects mice from CIA mice. (a) Schematic of the CIA model treated with TIPTP (upper). FACS analysis for superoxide and hydrogen peroxide from synovial fluid containing synoviocytes from CIA (lower). (b) Representative H&E staining of the ankle joints of each group were determined at 4 wks of CIA (left). Clinical arthritis score and swelling of paws (right) from ten mice per group. Scale bars: 500 μm. Serum (c) and Synovial fluid (d) were harvested at 4 wks of CIA and analyzed for cytokines by ELISA. […]
Arthritis mice were evaluated for disease progression three times a week as follows ^1,2. Each limb was scored according to the severity of inflammation, where 0 : no evidence of redness or swelling, 1 : redness and slight swelling confined to the tarsal joints or ankle, 2 : redness and mild swelling extending from the ankle to the tarsal joints, 3 : redness and moderate swelling extending from the ankle to the metatarsal joints, and 4 : severe swelling encompassing the ankle, foot, and digits, or ankylosis of the limb. […]

C[C@@H](Oc1cccc(-n2cc3c(n2)CCCC3)c1)C(=O)Nc1nnc(C(F)(F)F)s1 [TIPTP, (R)-2-(3-(4,5,6,7-tetrahydro-2H-indazol-2-yl)phenoxy)-N-(5-(trifluoromethyl)-1,3,4-thiadiazol-2-yl)propanamide]
cell viability of BMDMs (BMDMs): did not induce any significant change | severity of RA (clinical parameters, paw thickness, histology) vs vehicle-treated CIA mice ([1]; CIA mice (Fig. 4b, Supplemental Fig. 6a)): markedly lower | serum and synovial fluid concentrations of TNF-α, IL-6, IL-1β, and IL-18 ([1]; CIA mice, 4 wks, ELISA (Fig. 4c,d)): significantly attenuated | production of ROS by synovial tissues ([1]; CIA mice, dose-dependent (Fig. 4a)): significantly attenuated | binding of p22phox with Rubicon protein in synoviocytes ([1]; synoviocytes from CIA mice, co-IP (Fig. 4e)): markedly decreased
